≈ marks a conversion by molar mass, not a printed value. Like-named read-outs stand apart in the source and are kept apart here. Values belong to the molecule of their own block, whether it stands above or below them. Numbered stars: 1 amine (or outer) side, 2 acyl side, 3 side chain; on linkers, the order of the positions; unused ones are H or OH. Square brackets hold non-standard residues; d marks the D form. Peptide text beside a SMILES is read from it. ξ: configuration not given here. X8 = CC(=O)N1CCN(c2ccc(-c3cccc(C[C@@H](C(=O)[*:2])N(C)[*:1])c3)cn2)CC1; NMePhe(3-(3-pyridyl)) = CN[C@@H](Cc1cccc(-c2cccnc2)c1)C(=O)O; X36 = CN([C@@H](Cc1ccc(-c2cccnc2)cc1)C(=O)[*:2])[*:1]; Hmp(2R,3S) = CC[C@H](C)[C@@H](O)C(=O)O; NMeVal(β-OH) = CN[C@H](C(=O)O)C(C)(C)O; X6 = CCC(C)[C@@H](O[*:1])C(=O)[*:2]; ξNMeVal(3-OH) = CNC(C(=O)O)C(C)(C)O; Ile(3ξ) = CCC(C)[C@H](N)C(=O)O; NMeV = CN[C@H](C(=O)O)C(C)C; ξL = CC(C)CC(N)C(=O)O
Tests used:
[1] = tested on: A. fumigates; assay: Antifungal activity of separated positional isomers of Compound X; assay type: cell-based
Description: Test Procedure. The MIC assay method followed the procedure described by CLSI (1, 2) and employed automated liquid handlers to conduct serial dilutions and liquid transfers. Automated liquid handlers included the Multidrop 384 (Labsystems, Helsinki, Finland), Biomek 2000 and Biomek FX (Beckman Coulter, Fullerton Calif.). The wells in columns 2-12 in standard 96-well microdilution plates (Costar 3795) were filled with 150 μl of the appropriate diluent (95% EtOH for investigational compounds, 100% DMSO for amphotericin B). These assay plates would become the ‘mother plates’ from which the assay ‘daughter plates’ would be prepared. The drugs (300 μL at 40× the desired top concentration in the test plates) were dispensed into the appropriate well in Column 1 of the mother plates. The Biomek 2000 was used to make two-fold serial dilutions through Column 11 in the “mother plate”. The wells of Column 12 contained no drug and served as the organism growth control wells.
The microplates were viewed from the bottom using a plate viewer. […] The MIC was read and recorded as the lowest concentration of drug that inhibited visible growth of the organism. MECs were read where the growth shifted to a small, rounded, compact hyphal form as compared to the hyphal growth seen in the growth control well. […]

[2] = tested on: C. neoformans MMX 0634 ATCC 90112; assay: MIC assay (CLSI microdilution); assay type: cell-based; conditions: Cryptococcus neoformans, ATCC90112, 72 h, 72 hour; RPMI plus 0.002% Tween-80; read-out: MIC
[3] = tested on: C. albicans MMX 2000 ATCC 10231; assay: MIC assay (CLSI microdilution); assay type: cell-based; conditions: Candida albicans, ATCC10231, RPMI plus 0.002% Tween-80; read-out: MIC
[4] = tested on: C. albicans MMX 2000 ATCC 10231; assay: MIC assay (CLSI microdilution); assay type: cell-based; conditions: Candida albicans, ATCC10231, Without Tween-80; read-out: MIC
[5] = tested on: A. fumigatus MMX 5280 ATCC MYA-3626; assay: MIC/MEC assay (CLSI microdilution); assay type: cell-based, Aspergillus fumigatus; conditions: Aspergillus fumigatus, 48 h
Summary of the method: (§1)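 Test agents were assayed by CLSI broth microdilution in Tween-80-supplemented (0.002%) RPMI-1640 against spore inocula of approximately 0.2-2.5×10^4 CFU/mL. Strain MMX 5280 was run both with and without Tween-80.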

[6] = tested on: A. fumigatus MMX 6781 ATCC MYA-4609; assay: MIC/MEC assay (CLSI microdilution); assay type: cell-based; conditions: Aspergillus fumigatus
Summary of the method: as §1

[7] = tested on: A. fumigatus MMX 5944; assay: MIC/MEC assay (CLSI microdilution); assay type: cell-based; conditions: Aspergillus fumigatus, MMX5944, 48 h
Summary of the method: as §1

[8] = tested on: A. niger MMX 0624 ATCC 16888; assay: MIC/MEC assay (CLSI microdilution); assay type: cell-based; conditions: Aspergillus niger, ATCC16888, 48 h
Summary of the method: as §1

[9] = tested on: A. fumigatus from Aureogen; assay: MIC/MEC assay (CLSI microdilution); assay type: cell-based; conditions: Aspergillus fumigatus, 48 h
Summary of the method: as §1

[10] = tested on: A. fumigatus MMX 6782 ATCC 13073; assay: MIC/MEC assay (CLSI microdilution); assay type: cell-based; conditions: Aspergillus fumigatus, ATCC13073, 48 h
Summary of the method: as §1

[11] = tested on: A. flavus MMX 5948; assay: MIC/MEC assay (CLSI microdilution); assay type: cell-based; conditions: Aspergillus flavus, MMX5948, 48 h
Summary of the method: as §1

[12] = tested on: C. parapsilosis MMX 2323 ATCC 22019; assay: MIC assay (CLSI microdilution); assay type: cell-based, Candida parapsilosis; conditions: read-out: MIC
Summary of the method: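 Broth microdilution MIC testing of Candida parapsilosis ATCC 22019 followed CLSI methods in RPMI-1640, with or without 0.002% Tween-80. Yeast grown 48 hours at 35° C on Sabouraud dextrose agar was suspended to a 0.5 McFarland standard and diluted 1:100 to roughly 0.5-2.5×10^3 CFU/mL. The MIC was the lowest concentration preventing visible growth.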

[13] = RPMI plus 0.002% Tween-80, read-out: MEC
[14] = RPMI plus 0.002% Tween-80, read-out: MIC

Compound: CCC(C)[C@@H]1NC(=O)[C@@H]2CCCN2C(=O)[C@H](Cc2cccc(-c3cccnc3)c2)N(C)C(=O)[C@H](Cc2ccccc2)NC(=O)[C@H](C(C)C)N(C)C(=O)[C@@H](C(C)CC)OC(=O)C(C(C)(C)O)N(C)C(=O)C(CC(C)C)NC(=O)[C@H](C(C)C)N(C)C1=O (stereo partly drawn) [meta-substituted positional isomer of Compound X] (cyclo(F[NMePhe(3-(3-pyridyl))]P[Ile(3ξ)][NMeV][ξL][ξNMeVal(3-OH)][X6][NMeV]))
MIC [1]: 0.6 µg/mL (≈ 0.509 µM)

Compound: CCC(C)[C@@H]1NC(=O)[C@@H]2CCCN2C(=O)[C@H](Cc2ccc(-c3cccnc3)cc2)N(C)C(=O)[C@H](Cc2ccccc2)NC(=O)[C@H](C(C)C)N(C)C(=O)[C@@H](C(C)CC)OC(=O)C(C(C)(C)O)N(C)C(=O)C(CC(C)C)NC(=O)[C@H](C(C)C)N(C)C1=O (stereo partly drawn) [para substituted positional isomer of Compound X] (cyclo(F[X36]P[Ile(3ξ)][NMeV][ξL][ξNMeVal(3-OH)][X6][NMeV]))
MIC [1]: > 2.5 µg/mL

MIC [2]: 2 µg/mL | MIC [3]: 0.03 µg/mL | MIC [4]: 2 µg/mL (≈ 1.53 µM) | MIC [5, 14]: > 64 µg/mL | MIC ([5]; Without Tween-80, read-out: MIC): > 64 µg/mL | MIC ([6]; 48 h, RPMI plus 0.002% Tween-80, read-out: MIC): > 64 µg/mL | MIC [7, 14]: > 64 µg/mL | MIC [8, 14]: 1 µg/mL | MIC [9, 14]: > 64 µg/mL | MIC [10, 14]: > 64 µg/mL | MIC [11, 14]: 1 µg/mL | MIC ([12]; ATCC22019, RPMI plus 0.002% Tween-80): 0.25 µg/mL | MIC ([12]; ATCC22019, Without Tween-80): 2 µg/mL (≈ 1.53 µM)
Compound: CC[C@H](C)[C@@H]1NC(=O)[C@@H]2CCCN2C(=O)[C@H](Cc2cccc(-c3ccc(N4CCN(C(C)=O)CC4)nc3)c2)N(C)C(=O)[C@H](Cc2ccccc2)NC(=O)[C@H](C(C)C)N(C)C(=O)[C@@H]([C@@H](C)CC)OC(=O)[C@H](C(C)(C)O)N(C)C(=O)[C@H](CC(C)C)NC(=O)[C@H](C(C)C)N(C)C1=O [Compound 32] (cyclo(F[X8]PI[NMeV]L[NMeVal(β-OH)][Hmp(2R,3S)][NMeV]))
minimal effective concentration [5, 13]: 2 µg/mL | minimal effective concentration ([5]; Without Tween-80, read-out: MEC): > 64 µg/mL | minimal effective concentration ([6]; RPMI plus 0.002% Tween-80, 48 hr): > 64 µg/mL | minimal effective concentration ([7]; RPMI plus 0.002% Tween-80): 1 µg/mL | minimal effective concentration [8, 13]: 0.5 µg/mL | minimal effective concentration ([9]; RPMI plus 0.002% Tween-80): > 64 µg/mL | minimal effective concentration [10, 13]: > 64 µg/mL | minimal effective concentration ([11]; RPMI plus 0.002% Tween-80): 0.25 µg/mL

— US11066447B2, “Aureobasidium derivatives and methods of synthesis” (AureoGen Biosciences, Inc., priority 2016, dated 2021)
